Experimental findings from US8354455B2, “Prodrugs containing novel bio-cleavable linkers” (Piramal Enterprises Limited and Apparao Satyam, priority 2004, dated 2013) are described below.

Read-outs that look alike come from different tables or passages of the source. Marks after values point to notes of the source that are not given here.

One data set deals with MES-induced seizures. The data set is described as follows: Maximal Electroshock Test (MES), Test 1, mice i.p. Format: in vivo. Particulars: for minimal effective dose: Mus musculus, ip, symbol = dose with activity.
A further data set deals with convulsant metrazol. The data set is described as follows: Subcutaneous Metrazol Seizure Threshold Test (scMET), Test 1, mice i.p. Format: in vivo. The settings on record: for minimal effective dose: Mus musculus, ip, symbol = dose with activity; for ScMET (number of animal protected/number of animal tested): mice, i.p., 300 mg/kg (+).
The next data set has as its system mice. Particulars: mice, i.p.; for Rotorod Toxicity 4.0 h / Rotorod Toxicity 0.5 h: symbol = dose with toxicity; for Rotorod Toxicity (number of animals exhibiting toxicity/number of animals tested) / Rotorod Toxicity 0.5 h: 0.5 h.
Setting [1] is: 0.5 h, read-out: MES 0.5 h, mice, i.p., 0.5 h.
Where [2] appears, read: 4 h, read-out: MES 4.0 h, mice, i.p., 4.0 h.
Where [3] appears, read: 0.5 h, read-out: ScMET 0.5 h, mice, i.p., 0.5 h.
Setting [4] is: 4 h, read-out: ScMET 4.0 h, mice, i.p., 4.0 h.
[5] abbreviates: mice, i.p., 0.5 h, 300 mg/kg (+).

`CCOC(=O)CC1(CNC(=O)OCCSSCCO[N+](=O)[O-])CCCCC1` [I-A1-NOPD1]: the minimal effective dose with MES-induced seizures (setting [1]) was below 300 mg/kg; in the data set with MES-induced seizures (setting [2]), above 300 mg/kg; in the data set on convulsant metrazol (setting [3]), above 300 mg/kg; in the data set with convulsant metrazol (setting [4]) it was above 300 mg/kg. Besides, the “MES, at 0.25 hours after dosing” value in the data set with MES-induced seizures (mice, i.p., 0.25 h (footnote k; printed in 0.5 h column)) was “++ (++ = activity or toxicity at 100 mg/kg)”. For the same molecule, the “Rotorod Toxicity 4.0 h” value with mice is “— (— = no activity or no toxicity at 300 mg/kg)”.

`CCOC(=O)CC1(CNC(=O)OCCSSCCOC(=O)NC(CO)C(=O)OC)CCCCC1` (stereo not drawn) [I-A1-PD6]: the minimal effective dose with MES-induced seizures (setting [1]) is below 300 mg/kg; in the data set with MES-induced seizures (setting [2]) it was above 300 mg/kg; in the data set on convulsant metrazol (setting [3]), below 300 mg/kg; in the data set with convulsant metrazol (setting [4]), above 300 mg/kg. In addition, the “MES (number of animal protected/number of animal tested)” value in the data set on MES-induced seizures (setting [5]) was “(1/1)”. In addition, in the data set with convulsant metrazol (0.5 h), the “ScMET (number of animal protected/number of animal tested)” value is listed as “(1/1)”. For the same molecule, in the data set with mice (300 mg/kg (+)), the “Rotorod Toxicity (number of animals exhibiting toxicity/number of animals tested)” value was “(4/4)^i”. Also, in the data set on mice, the “Rotorod Toxicity 0.5 h” value was “+ (+ = activity or toxicity at 300 mg/kg)”. Further, the “Rotorod Toxicity 4.0 h” value with mice is reported as “— (— = no activity or no toxicity at 300 mg/kg)”.

Regarding `CCOC(=O)CC1(CNC(=O)OCCSSCCOC(=O)NC(CCC(=O)OC)C(=O)OC)CCCCC1` (stereo not drawn) [I-A1-PD7], the minimal effective dose is below 300 mg/kg in the data set on MES-induced seizures (setting [1]), above 300 mg/kg in the data set with MES-induced seizures (setting [2]), below 300 mg/kg in the data set with convulsant metrazol (setting [3]) and above 300 mg/kg in the data set on convulsant metrazol (setting [4]). In addition, the “MES (number of animal protected/number of animal tested)” value in the data set on MES-induced seizures (setting [5]) is listed as “(1/1)”. Besides, the “ScMET (number of animal protected/number of animal tested)” value with convulsant metrazol (0.5 h) is “(1/1)^e”. In addition, the “Rotorod Toxicity (number of animals exhibiting toxicity/number of animals tested)” value with mice (300 mg/kg (+)) is given as “(2/4)^d”. For the same molecule, in the data set on mice, the “Rotorod Toxicity 0.5 h” value was “+ (+ = activity or toxicity at 300 mg/kg)”. Further, the “Rotorod Toxicity 4.0 h” value in the data set on mice is recorded as “— (— = no activity or no toxicity at 300 mg/kg)”.

Regarding `CCOC(=O)CC1(CNC(=O)OCCSSCCO)CCCCC1` [I-A1-PD8], the minimal effective dose in the data set on MES-induced seizures (setting [2]), in the data set on convulsant metrazol (setting [3]) and in the data set on convulsant metrazol (setting [4]) was above 300 mg/kg in each case. Moreover, the “MES (number of animal protected/number of animal tested)” value was “(2/3)” with MES-induced seizures (mice, i.p., 0.5 h, 100 mg/kg (++)); “(1/1)” in the data set on MES-induced seizures (setting [5]); “(1/1)” in the data set on MES-induced seizures (mice, i.p., 4.0 h, 300 mg/kg (+)). The “ScMET (number of animal protected/number of animal tested)” value in the data set with convulsant metrazol (0.5 h) is reported as “(1/1)”. In the data set with mice (300 mg/kg (+)), the “Rotorod Toxicity (number of animals exhibiting toxicity/number of animals tested)” value is given as “(4/4)^f”. Moreover, the “Rotorod Toxicity 4.0 h” value with mice was “— (— = no activity or no toxicity at 300 mg/kg)”.

Take `CCOC(=O)CC1(CNC(=O)OCCSSCCOC(=O)NCCN(C)C)CCCCC1` [I-A1-PD10]: the minimal effective dose in the data set with MES-induced seizures (setting [1]), in the data set with MES-induced seizures (setting [2]), with convulsant metrazol (setting [3]) and in the data set on convulsant metrazol (setting [4]) was above 300 mg/kg in each case. In the data set with mice (100 mg/kg (++)), the “Rotorod Toxicity (number of animals exhibiting toxicity/number of animals tested)” value is listed as “(8/8)^j”. Besides, the “Rotorod Toxicity 0.5 h” value with mice is “++ (++ = activity or toxicity at 100 mg/kg)”.

In the case of `CCOC(=O)CC1(CNC(=O)OCCSSCCOC(C)=O)CCCCC1` [I-A1-PD13], the minimal effective dose is below 300 mg/kg with MES-induced seizures (setting [1]), above 300 mg/kg in the data set on MES-induced seizures (setting [2]), below 300 mg/kg in the data set with convulsant metrazol (setting [3]) and above 300 mg/kg with convulsant metrazol (setting [4]). In addition, the “MES (number of animal protected/number of animal tested)” value in the data set on MES-induced seizures (setting [5]) is listed as “(1/1)”. The “ScMET (number of animal protected/number of animal tested)” value in the data set on convulsant metrazol (0.5 h) is “(1/1)”. In addition, the “Rotorod Toxicity (number of animals exhibiting toxicity/number of animals tested)” value in the data set with mice (300 mg/kg (+)) is “(1/4)”. Besides, in the data set with mice, the “Rotorod Toxicity 0.5 h” value was “+ (+ = activity or toxicity at 300 mg/kg)”. In the data set with mice, the “Rotorod Toxicity 4.0 h” value was “— (— = no activity or no toxicity at 300 mg/kg)”.

For `CCOC(=O)CC1(CNC(=O)OCCSSCCOC(=O)NC(=O)[C@H](CC)N2CCCC2=O)CCCCC1` [I-AA-MPD13], the minimal effective dose in the data set on MES-induced seizures (setting [1]) was above 300 mg/kg; in the data set with MES-induced seizures (setting [2]) it was above 300 mg/kg; with convulsant metrazol (setting [3]), below 300 mg/kg; with convulsant metrazol (setting [4]) it was above 300 mg/kg. For the same molecule, in the data set with mice, the “Rotorod Toxicity 0.5 h” value is on record as “+ (+ = activity or toxicity at 300 mg/kg)”. The “Rotorod Toxicity 4.0 h” value with mice is “— (— = no activity or no toxicity at 300 mg/kg)”.
